This note sets out measurements from patent US5527809A, “Substituted imidazo[4,5-b]pyridines and benzimidazoles” (Bayer Aktiengesellschaft, priority 1993, dated 1996).

In experiment [1] the test system is isolated rabbit aorta (contraction induced by angiotensin II). Nature of the experiment: Inhibition of the contraction induced by agonists in isolated rabbit aorta rings (angiotensin II). The note with it: Oryctolagus cuniculus, based on the 3rd = submaximal agonist concentration, read-out: IC50 (50% inhibition of agonist-induced contraction). The protocol: Investigation of the inhibition of the contraction induced by agonists
Rabbits of either sex are stunned by a blow to the back of the head and exsanguinated, or in some cases anaesthetized with Nembutal (about 60-80 mg/kg i.v.) and sacrificed by opening the thorax. The thoracic aorta is removed, freed from adhering connective tissue, divided into ring segments 1.5 mm wide and individually transferred under an initial loading of about 3.5 g to 10 ml organ baths containing Krebs-Henseleit nutrient solution, which is temperature-controlled at 37° C. and aerated with 95% 02 / 5% CO2, of the following composition: 119 mmol/l NaCl; 2.5 mmol/l CaCl2 ×2H2 O; 1.2 mmol/l KH2 PO4; 10 mmol/l glucose; 4.8 mmol/l KCl; 1.4 mmol/l MgSO4 ×7 H2 O and 25 mmol/l NaHCO3.
The contractions are detected isometrically by Statham UC2 cells by means of bridge amplifiers (ifd Mulheim or DSM Aalen) and digitalized and assessed by means of A/D converters (System 570, Keithley Munich). Agonist dose response curves (DRC) are carried out hourly. With each DRC, 3 or 4 individual concentrations are applied to the baths at a 4 min interval. After the end of the DRC and subsequent washing-out cycles (16 times in each case about 5 sec/min with the abovementioned nutrient solution), a 28-minute rest or incubation phase follows, during which the contractions as a rule reach the starting value again. […]

Experiment [2] concerns the target T1, angiotensin II receptor (Bos taurus, UniProt P25104).
T1 construct: partially purified membrane fractions of bovine AGC; from tissue; host or cells: bovine adrenal gland cortex, partially purified membrane fractions
T1 sequence (P25104 1-359): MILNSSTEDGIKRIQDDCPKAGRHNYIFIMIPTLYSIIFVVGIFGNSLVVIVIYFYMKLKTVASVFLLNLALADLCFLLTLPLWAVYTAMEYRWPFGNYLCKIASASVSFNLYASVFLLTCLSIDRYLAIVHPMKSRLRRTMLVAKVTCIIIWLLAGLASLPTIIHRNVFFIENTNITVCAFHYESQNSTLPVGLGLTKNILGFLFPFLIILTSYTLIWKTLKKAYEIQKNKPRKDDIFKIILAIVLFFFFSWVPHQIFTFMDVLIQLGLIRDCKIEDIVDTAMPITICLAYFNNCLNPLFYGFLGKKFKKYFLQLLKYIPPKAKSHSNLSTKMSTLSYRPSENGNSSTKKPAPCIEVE
Nature of the experiment: Interaction with the angiotensin II receptor in membrane fractions of the adrenal gland cortex (bovine), 3H-angiotensin II binding. The following applies: bovine adrenal gland cortex membranes; 3H-angiotensin II 3-5 nM; 60 min, room temperature; read-out: IC50 (50% inhibition of the specific binding of the radioligand). An excerpt:
Interaction of the compounds according to the invention with the angiotensin II receptor in membrane fractions of the adrenal gland cortex (bovine)
Bovine adrenal gland cortices (AGC), which have been freshly removed and carefully freed from medulla from capsule, are comminuted in sucrose solution (0.32M) with the aid of an Ultra-Turrax (Janke & Kunkel, Staufen i.B.) to give a coarse membrane homogenate and are partially purified in two centrifugation steps to give membrane fractions. The receptor binding investigations are carried out on partially purified membrane fractions of bovine AGC using radioactive angiotensin II in an assay volume of 0.25 ml, which specifically contains the partially purified membranes (50-80 μg), ^3 H-angiotensin II (3-5 nM), test buffer solution (50 mM Tris, pH 7.2), 5 mM MgCl2 and the substances to be investigated. After an incubation time of 60 min at room temperature, the unbound radioactivity of the samples is separated by means of moistened glass fibre filters (Whatman GF/C) and the bound radioactivity is measured […] in a scintillation cocktail after washing the protein with ice-cold buffer solution (50 mM Tris/HCl, pH 7.4, 5% PEG 6000). […]

Experiment [3] concerns smooth muscle cells. Nature of the experiment: Inhibition of the proliferation of smooth muscle cells (3H-thymidine incorporation). The experiment is classed as cell-based. The following applies: rat aorta smooth muscle cells; thymidine incorporation produced by 10% FCS; read-out: IC50 (half-maximum inhibition of thymidine incorporation). The method, then:
Investigation of the inhibition of the proliferation of smooth muscle cells by the compounds according to the invention
To determine the antiproliferation action of the compounds, smooth muscle cells are used which are obtained from aortas of rats by the media explant technique [R. Ross, J. Cell. Biol. 50, 172, 1971]. The cells are inoculated in suitable culture dishes, as a rule 96-hole plates, and cultured in 5% CO2 at 37° C. for 2-3 days in medium 199 containing 7.5% FCS and 7.5% NCS, 2 mM L-glutamine and 15 mM HEPES, pH 7.4. The cells are then synchronized by withdrawal of serum for 2-3 days and then stimulated into growth with serum or other factors. Test compounds are simultaneously added. After 16-20 hours, 1 μCi of ^3 H-thymidine is added and after a further 4 hours the incorporation of this substance into the TCA-precipitatable DNA of the cells is determined. To determine the IC50 values, the active compound concentration is calculated which, on sequential dilution of the active compound, causes half-maximum inhibition of the thymidine incorporation produced by 10% FCS.
On the technique in general: Dividing cells build labelled thymidine or BrdU into new DNA.

As for `Cc1ccc(S(=O)(=O)NC(=O)Cc2ccc(Cn3c(C4CC4)nc4c(C)cc(C)nc43)cc2)cc1` [Example 9], the IC50 in experiment [1] was determined as 61 nM; in experiment [2], 16 nM.
Consider `Cc1cc(C)c2nc(C3CC3)n(Cc3ccc(C(C(=O)O)C(C)C)cc3)c2n1` (centres unmarked) [Example 2], for which, in experiment [2], the IC50 is 210 nM.
With `O=C(N[C@H](CO)c1ccccc1)C(c1ccc(Cn2c(-c3ccccc3)nc3cccnc32)cc1)C1CCCCCC1` (some centres unmarked) [Example 14], in experiment [3], the IC50 was 120 nM.
In the case of `Cc1ccnc2c1nc(-c1ccccc1)n2Cc1ccc(C(C(=O)NC(C(N)=O)c2ccccc2)C2CCCCCC2)cc1` (centres unmarked) [Example 23], in experiment [3], the IC50 amounted to 43 nM.
